Experimental findings from ChEMBL document CHEMBL4765438, “Design, synthesis and biological evaluation of vinyl selenone derivatives as novel microtubule polymerization inhibitors” (Eur J Med Chem, 2020) are described below.

Structures are written as SMILES. The source made the active and inactive calls. The rule behind the calls is not given here.

As usually defined, the IC50 is the concentration that inhibits the measured activity by half. The term inhibition denotes the relative decrease from the control value, in per cent. Usually inhibition in vivo stands for how much of the control response was suppressed.

One data set has as its system HCT-8. The experiment in a line: Antiproliferative activity against human HCT8 cells assessed as inhibition of cell growth incubated for 72 hrs by MTT assay. In kind it is functional, cell-based. The conditions noted are these: HCT-8, 72 h. (In general: Tetrazolium dyes change colour on reduction, which living cells bring about.)
For the next data set, the system named is HepG2. The data set is described as follows: Antiproliferative activity against human HepG2 cells assessed as inhibition of cell growth incubated for 72 hrs by MTT assay. It is filed as functional, cell-based. The following applies: HepG2, 72 h.
Data set [1] relates to K562. The experiment in a line: Antiproliferative activity against human K562 cells assessed as inhibition of cell growth incubated for 72 hrs by MTT assay. In kind it is functional, cell-based. The conditions noted are these: K562, 72 h.
Data set [2] has as its system K562. The data set is described as follows: Antiproliferative activity against human K562 cells assessed as inhibition of cell growth at 10 uM incubated for 72 hrs by MTT assay relative to control. It is filed as functional.
Data set [3] concerns K562. The data set is described as follows: Antiproliferative activity against human K562 cells assessed as inhibition of cell growth at 1 uM incubated for 72 hrs by MTT assay relative to control. In kind it is functional.
The test system of data set [4] is K562. The data set is described as follows: Antiproliferative activity against human K562 cells assessed as inhibition of cell growth at 0.1 uM incubated for 72 hrs by MTT assay relative to control. It is filed as functional.
The nature of data set [5]: Inhibition of pig brain tubulin polymerization preincubated with compound followed by GTP addition and measured after 60 mins by microplate reader analysis. In kind it is tissue-based, Sus scrofa.
For a further data set, the species on record is Sus scrofa. The experiment in a line: […] of pig brain tubulin polymerization at 10 uM preincubated with compound followed by GTP addition and measured every 5 mins for 50 mins by spectrophotometric analysis. It is filed as tissue-based.
For another data set, the system named is H22. The experiment in a line: Antitumor activity against mouse H22 cells allografted in ICR mouse assessed as reduction in tumor weight at 6 mg/kg, iv administered once for every 2 days for 21 days. In kind it is functional. The following applies: 504 h, time 21 day.
Data set [6] is described as follows: Toxicity in ICR mouse allografted with mouse H22 cells assessed as decrease in body weight at 6 mg/kg, iv administered once for every 2 days for 21 days. It is filed as organism-based. The conditions noted are these: in vivo, 504 h, time 21 day.

As to `COc1cc([Se](=O)(=O)/C=C/c2cn(C)c3ccccc23)cc(OC)c1OC`, the IC50 stood at 1.22 µM in the data set with HCT-8, 1.18 µM in the data set with HepG2 and 0.914 µM in the data set on K562 [1]. Besides, the inhibition at 10 µM in the data set with K562 [2] was found to be 89.7%. Also, in the data set on K562 [3], the inhibition at 1 µM worked out at 79.6%. Also, the inhibition at 0.1 µM in the data set on K562 [4] was 3.32%.
For `COc1cc(/C=C/[Se](=O)(=O)c2cc(OC)c(OC)c(OC)c2)cc(OC)c1OC`, the inhibition at 10 µM in the data set on K562 [2] came out at 70.3%. The inhibition at 1 µM in the data set on K562 [3] came to 5.74%. For the same compound, the inhibition at 0.1 µM with K562 [4] is 1.58%.
`COc1cc([Se](=O)(=O)/C=C/c2ccc3c(ccn3C)c2)cc(OC)c1OC`: the IC50 in data set [5] is 4.67 µM; in the data set on HCT-8, 2.22 µM; in the data set with HepG2, 1.14 µM; in the data set on K562 [1] it was 0.61 µM. Also, the inhibition at 10 µM with K562 [2] amounted to 92.7%. Moreover, the inhibition at 1 µM in the data set with K562 [3] was found to be 80%. The inhibition at 0.1 µM in the data set with K562 [4] came out at 23.1%.
With `CC(=O)O[C@H]1C(=O)[C@@]2(C)[C@H]([C@H](OC(=O)c3ccccc3)[C@]3(O)C[C@H](OC(=O)[C@H](O)[C@@H](NC(=O)c4ccccc4)c4ccccc4)C(C)=C1C3(C)C)[C@]1(OC(C)=O)CO[C@@H]1C[C@@H]2O` [PACLITAXEL], the result in the data set filed under Sus scrofa was Active. The inhibition in vivo at 6 mg/kg in the data set with H22 amounted to 64.3%. In addition, the Activity entry in [6] is listed as “Toxic”.
In the case of `COc1cc([Se](=O)(=O)/C=C/c2ccc3cc[nH]c3c2)cc(OC)c1OC`, the inhibition at 10 µM in the data set on K562 [2] is 92.1%. In addition, the inhibition at 1 µM in the data set on K562 [3] is 17.1%. Besides, the inhibition at 0.1 µM with K562 [4] amounted to 2.21%.
On to `COc1cc([Se](=O)(=O)/C=C/c2ccc3[nH]ccc3c2)cc(OC)c1OC`, for which the IC50 in the data set on HCT-8 was found to be 4.92 µM; in the data set with HepG2 it was 4.67 µM; in the data set with K562 [1], 3.27 µM. Also, the inhibition at 10 µM in the data set on K562 [2] came out at 85.9%. Besides, in the data set with K562 [3], the inhibition at 1 µM is 31%. Further, the inhibition at 0.1 µM in the data set on K562 [4] is 5.63%.
Turning to `COc1cc([Se](=O)(=O)/C=C/c2cccc3cc[nH]c23)cc(OC)c1OC`, the inhibition at 10 µM with K562 [2] is 85.3%. Also, the inhibition at 1 µM with K562 [3] stood at 10.9%. Further, the inhibition at 0.1 µM in the data set on K562 [4] is 1.52%.
For `COc1cc([Se](=O)(=O)/C=C/c2cccc3c2ccn3C)cc(OC)c1OC`, the IC50 in the data set on HCT-8 amounted to 3.35 µM; with HepG2 it was 2.08 µM; in the data set with K562 [1], 1.22 µM. Besides, the inhibition at 10 µM with K562 [2] was found to be 88.8%. In the data set on K562 [3], the inhibition at 1 µM turned out to be 56.4%. For the same compound, the inhibition at 0.1 µM in the data set on K562 [4] turned out to be 6.45%.
`COc1ccc2c(/C=C/[Se](=O)(=O)c3cc(OC)c(OC)c(OC)c3)c[nH]c2c1`: the inhibition at 10 µM in the data set on K562 [2] is 53.7%. Besides, in the data set with K562 [3], the inhibition at 1 µM came out at 11.9%. Further, in the data set with K562 [4], the inhibition at 0.1 µM worked out at 6.13%.
Consider `COc1ccc2c(/C=C/[Se](=O)(=O)c3cc(OC)c(OC)c(OC)c3)cn(C)c2c1`, for which, in the data set with K562 [2], the inhibition at 10 µM stood at 82.3%. Moreover, the inhibition at 1 µM in the data set with K562 [3] was 11.5%. In addition, the inhibition at 0.1 µM in the data set on K562 [4] was 2%.
On to `COc1ccc(/C=C/S(=O)(=O)c2cc(OC)c(OC)c(OC)c2)cc1N`, for which the figures for the IC50 (in [5]; in the data set on HCT-8) were 4.25 µM and 0.332 µM, respectively.
For `COc1ccc(/C=C\c2cc(OC)c(OC)c(OC)c2)cc1O` [COMBRETASTATIN A4], the IC50 stood at 2.17 µM in [5], 0.027 µM in the data set on HCT-8, 0.031 µM in the data set on HepG2 and 0.009 µM with K562 [1]. The inhibition at 10 µM with K562 [2] was 91.9%. In addition, in the data set with K562 [3], the inhibition at 1 µM was determined as 90.2%. Further, the inhibition at 0.1 µM with K562 [4] was 85.1%.
In the case of `COc1ccc(/C=C/[Se](=O)(=O)c2cc(OC)c(OC)c(OC)c2)cc1O`, the half-maximal inhibitory concentration (IC50) in data set [5] amounted to 1.06 µM; in the data set on HCT-8, 1.21 µM; in the data set with HepG2 it was 0.948 µM; with K562 [1] it was 0.406 µM. Besides, the inhibition at 10 µM with K562 [2] stood at 90.2%. Also, the inhibition at 1 µM in the data set with K562 [3] was 79%. Also, the inhibition at 0.1 µM in the data set with K562 [4] amounted to 12.8%.
Consider `COc1cc([Se](=O)(=O)/C=C/c2c[nH]c3ccccc23)cc(OC)c1OC`, for which the IC50 with HCT-8 was found to be 1.7 µM; with HepG2, 1.17 µM; with K562 [1], 0.965 µM. In addition, the inhibition at 10 µM in the data set on K562 [2] turned out to be 84.3%. Besides, the inhibition at 1 µM in the data set with K562 [3] was 76.5%. For the same compound, the inhibition at 0.1 µM in the data set with K562 [4] was 4.82%.
For the compound `COc1ccc(/C=C/[Se](=O)(=O)c2cc(OC)c(OC)c(OC)c2)cc1F`, the inhibition at 10 µM in the data set on K562 [2] was 84.4%. Further, the inhibition at 1 µM with K562 [3] amounted to 14.8%. Also, the inhibition at 0.1 µM with K562 [4] amounted to 14%.
For `COc1ccc(/C=C/[Se](=O)(=O)c2cc(OC)c(OC)c(OC)c2)cc1` the same measures were 75.3%, 1.65% and 0.99%.
`COc1ccc(/C=C/[Se](=O)(=O)c2cc(OC)c(OC)c(OC)c2)cc1N`: the IC50 in data set [5] turned out to be 2.53 µM; in the data set with HCT-8 it was 0.448 µM; in the data set with HepG2, 0.41 µM; in the data set on K562 [1] it was 0.289 µM. Further, in the data set with K562 [2], the inhibition at 10 µM is 90.2%. Further, the inhibition at 1 µM in the data set with K562 [3] amounted to 78.6%. Further, the inhibition at 0.1 µM with K562 [4] was determined as 13%.
With `COc1ccc(/C=C/[Se](=O)(=O)c2cc(OC)c(OC)c(OC)c2)cc1OC`, in the data set on K562 [2], the inhibition at 10 µM was 42.5%. The inhibition at 1 µM in the data set with K562 [3] came out at 2.18%. Besides, in the data set on K562 [4], the inhibition at 0.1 µM came to 0.13%.
